pIC50: −log10 of the molar value. Several values for one entry are separate records, joined by “and”; a condition that tells them apart may be missing. Equal values may be shown once.
Tested on: 227483-062-R1-J1-PDC complex spheroids with HUVEC/MSC, viability
Test: Anticancer human tumor 227483-062-R1-J1-PDC patient-derived pancreatic carcinoma cell line growth inhibition [CLK]
Details: for viability, T/C: stronger effect = lower value
Text: A high-throughput screen of multi-cell type tumor spheroids was designed to identify active combinations of […] and targeted small molecules. Complex spheroids include a stromal component modeled by human endothelial cells (HUVEC) and fibroblasts modeled by human mesenchymal stem cells (MSCs). The concentration ranges selected for each drug and investigational agent were based upon clinically achievable concentrations if the clinical Cmax of the agent was known.
Compounds. The drugs and investigational agents: cirtuvivint (SM08502; NSC835563), CC-671 (NSC850746), vemurafenib (NSC761431), tapotoclax (NSC804041), sotorasib (NSC818433), adagrasib (NSC831453), MRTX-1133 (NSC836407), BAY2416964 (NSC825713), copanlisib (NSC816437), inavolisib (NSC800729), abemaciclib (NSC768073), osimertinib (NSC779217), entinostat (NSC756642), eltanexor (KPT-8602, NSC794443), venetoclax (NSC766270), ceralasertib (NSC777638), bortezomib (NSC756655), olaparib (NSC753686), talazoparib (NSC767125), alisertib (NSC759677), peposertib (NSC802822), gemcitabine (NSC613327), 5-fluorouracil (NSC19893), SN-38 (NSC673596), oxaliplatin (NSC266046), paclitaxel (NSC125973), and doxorubicin (NSC123127), were obtained from the National Cancer Institute (NCI) Developmental Therapeutics Program Chemical Repository. The FDA-approved anticancer drug set is available from the Developmental Therapeutics Program at https://dtp.cancer.gov/organization/dscb/obtaining/available plates.htm. […] The stock solutions were prepared in dimethyl sulfoxide (DMSO, Sigma-Aldrich, St. Louis, MO, cat. D2650), except for the platinum complexes which were prepared in saline (Quality Biological, Gaithersburg, MD, cat. 114-055-101), at 800-fold the tested concentration and stored at -70 degrees C prior to their use. All drugs and investigational agents were tested over a range starting from a high concentration at or near the clinical Cmax and decreasing in half-log increments. If the clinical Cmax for an agent had not been determined, the highest concentration tested was 10 microM.
Cell Culture. All cells were maintained in an incubator at 37 degrees C and 5% CO2 with 95% humidity. The PDC lines were cultured according to standard operating procedures established by the NCI PDMR. Briefly, all PDCs were thawed and cultured in Matrigel-coated flasks prepared with a working solution of 1X Ham's F-12 nutrient mix, without supplementation (Invitrogen, Waltham, MA, cat. 11765054), 100 U/mL penicillin-streptomycin (Invitrogen, cat. 15140122), and 2.5% Matrigel (Corning Inc., Corning, NY, cat. 354248) for the first three passages. The 947758-054-R-J2-PDC line was cultured in 6B/Colon 1A media, which includes advanced DMEM/F-12 (Thermo Fisher Scientific, cat. 12634028), 10 mM HEPES (Thermo Fisher Scientific, cat. 15630080), 1X GlutaMAX supplement (Thermo Fisher Scientific, cat. 35050061), 0.1 mg/mL primocin (InvivoGen, cat. ant-pm-2), 10% defined fetal bovine serum, heat inactivated (HyClone Laboratories Inc., cat. SH30070.03HI), 1.25 mM N-Acetyl-L-cysteine (Sigma-Aldrich, cat. A9165), 10 mM nicotinamide (Sigma-Aldrich, cat. N0636), 1X B-27 supplement (Thermo Fisher Scientific, cat. 17504044), 1X N-2 supplement (Thermo Fisher Scientific, cat. 17502048), and 10 microM Y-27632 dihydrochloride (Tocris Bioscience, cat. 1254). The 876862-298-R-J1-PDC was cultured in 6E media, which includes all 6B/Colon 1A media components plus 50% L-WRN conditioned media (ATCC, cat. CRL-3276), 50 ng/mL recombinant human EGF recombinant protein (hEGF; Thermo Fisher Scientific, cat. PHG0311), 10 ng/mL recombinant human fibroblast growth factor 10 (hGFG-10; PeproTech, cat. 100-26), 1 ng/mL recombinant human fibroblast growth factor 2 (hFGF-2; PeproTech, cat. 100-18B), and 1 µM prostaglandin E2 (PGE2; Tocris, cat. 2296). The 227483-062-R1-J1-PDC line was cultured in Panc media, containing all 6E components except hFGF-2, with the addition of 500 nM SB-431542 (Selleckchem, cat. S1067) and 10 nM gastrin (Tocris, cat. 3006). […]

[1] = curve of first compound, second compound 0.0316 µM
[2] = curve of first compound, second compound 0.1 µM
[3] = curve of first compound, second compound 0.316 µM
[4] = curve of first compound, second compound 1 µM
[5] = curve of first compound, second compound 3.16 µM
[6] = curve of first compound, second compound 10 µM
[7] = second compound 0.0316 µM, first compound 0.0316 µM
[8] = second compound 0.0316 µM, first compound 0.1 µM
[9] = second compound 0.0316 µM, first compound 0.316 µM
[10] = second compound 0.0316 µM, first compound 1 µM
[11] = second compound 0.1 µM, first compound 0.0316 µM
[12] = second compound 0.1 µM, first compound 0.1 µM
[13] = second compound 0.1 µM, first compound 0.316 µM
[14] = second compound 0.1 µM, first compound 1 µM
[15] = second compound 0.316 µM, first compound 0.0316 µM
[16] = second compound 0.316 µM, first compound 0.1 µM
[17] = second compound 0.316 µM, first compound 0.316 µM
[18] = second compound 0.316 µM, first compound 1 µM
[19] = second compound 1 µM, first compound 0.0316 µM
[20] = second compound 1 µM, first compound 0.1 µM
[21] = second compound 1 µM, first compound 0.316 µM
[22] = second compound 1 µM, first compound 1 µM
[23] = second compound 3.16 µM, first compound 0.0316 µM
[24] = second compound 3.16 µM, first compound 0.1 µM
[25] = second compound 3.16 µM, first compound 0.316 µM
[26] = second compound 3.16 µM, first compound 1 µM
[27] = second compound 10 µM, first compound 0.0316 µM
[28] = second compound 10 µM, first compound 0.1 µM
[29] = second compound 10 µM, first compound 0.316 µM
[30] = second compound 10 µM, first compound 1 µM
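Also: spheroids exposed to compounds for seven days before readout.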
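For viability, T/C in this document: percent of DMSO vehicle control luminescence as 100% viability.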

Structure (SMILES): CC1COCCN1c1cc(C2(S(C)(=N)=O)CC2)nc(-c2ccnc3[nH]ccc23)n1 (stereo unspecified) + CN1CCN(c2cc(C(=O)Nc3cc4cc(-c5cnn(C)c5)ccc4cn3)ccn2)CC1
- pIC50 [1]: 5.05
- pIC50 [2]: 5.95
- pIC50 [3]: > 7.50
- pIC50 [4]: > 7.50
- pIC50 [5]: > 7.50
- pIC50 [6]: > 7.50
- viability, T/C [7]: 82.8%
- viability, T/C [8]: 98.1%
- viability, T/C [9]: 93.7%
- viability, T/C [10]: 84.6%
- viability, T/C (second compound 0.0316 µM, first compound 3.16 µM): 85.3%
- viability, T/C (second compound 0.0316 µM, first compound 10 µM): 45.8%
- viability, T/C [11]: 60.5%
- viability, T/C [12]: 74.2%
- viability, T/C [13]: 60.2%
- viability, T/C [14]: 51.9%
- viability, T/C (second compound 0.1 µM, first compound 3.16 µM): 33.3%
- viability, T/C (second compound 0.1 µM, first compound 10 µM): 21.7%
- viability, T/C [15]: 6.08%
- viability, T/C [16]: 4.49%
- viability, T/C [17]: 4.56%
- viability, T/C [18]: 4.4%
- viability, T/C (second compound 0.316 µM, first compound 3.16 µM): 6.8%
- viability, T/C (second compound 0.316 µM, first compound 10 µM): 2.88%
- viability, T/C [19]: 1.88%
- viability, T/C [20]: 2.55%
- viability, T/C [21]: 1.66%
- viability, T/C [22]: 3.91%
- viability, T/C (second compound 1 µM, first compound 3.16 µM): 2.05%
- viability, T/C (second compound 1 µM, first compound 10 µM): 1.59%
- viability, T/C [23]: 4.44%
- viability, T/C [24]: 3.71%
- viability, T/C [25]: 4.61%
- viability, T/C [26]: 3.67%
- viability, T/C (second compound 3.16 µM, first compound 3.16 µM): 2.93%
- viability, T/C (second compound 3.16 µM, first compound 10 µM): 2.93%
- viability, T/C [27]: 3.62%
- viability, T/C [28]: 2.17%
- viability, T/C [29]: 2.15%
- viability, T/C [30]: 1.98%
- viability, T/C (second compound 10 µM, first compound 3.16 µM): 2.16%
- viability, T/C (second compound 10 µM, first compound 10 µM): 3.07%

Structure (SMILES): CCN1CCN(Cc2ccc(Nc3ncc(F)c(-c4cc(F)c5nc(C)n(C(C)C)c5c4)n3)nc2)CC1
- viability, T/C (compound 0.00316 µM): 93.6% and 83.6%
- viability, T/C (compound 0.01 µM): 110% and 94.8%
- viability, T/C (compound 0.0316 µM): 92.8% and 79.4%
- viability, T/C (compound 0.1 µM): 98.2% and 76.2%
- viability, T/C (compound 0.316 µM): 95.1% and 73.4%
- viability, T/C (compound 1 µM): 88.3% and 82%
- pIC50 (curve of compound): < 6.00

Structure (SMILES): CCc1c2c(nc3ccc(O)cc13)-c1cc3c(c(=O)n1C2)COC(=O)[C@]3(O)CC + CN1CCN(c2cc(C(=O)Nc3cc4cc(-c5cnn(C)c5)ccc4cn3)ccn2)CC1
- pIC50 [1]: 6.56
- pIC50 [2]: 7.89
- pIC50 [3]: > 8.50
- pIC50 [4]: > 8.50
- pIC50 [5]: > 8.50
- pIC50 [6]: > 8.50
- viability, T/C (second compound 0.0316 µM, first compound 0.00316 µM): 96.7%
- viability, T/C (second compound 0.0316 µM, first compound 0.01 µM): 99%
- viability, T/C [7]: 74.9%
- viability, T/C [8]: 62%
- viability, T/C [9]: 52.1%
- viability, T/C [10]: 32.5%
- viability, T/C (second compound 0.1 µM, first compound 0.00316 µM): 58.4%
- viability, T/C (second compound 0.1 µM, first compound 0.01 µM): 53.1%
- viability, T/C [11]: 38.7%
- viability, T/C [12]: 38.1%
- viability, T/C [13]: 25.4%
- viability, T/C [14]: 8.95%
- viability, T/C (second compound 0.316 µM, first compound 0.00316 µM): 3.53%
- viability, T/C (second compound 0.316 µM, first compound 0.01 µM): 4.77%
- viability, T/C [15]: 3.57%
- viability, T/C [16]: 4.05%
- viability, T/C [17]: 1.85%
- viability, T/C [18]: 0.98%
- viability, T/C (second compound 1 µM, first compound 0.00316 µM): 1.32%
- viability, T/C (second compound 1 µM, first compound 0.01 µM): 1.1%
- viability, T/C [19]: 1.61%
- viability, T/C [20]: 1.38%
- viability, T/C [21]: 2.57%
- viability, T/C [22]: 2.01%
- viability, T/C (second compound 3.16 µM, first compound 0.00316 µM): 4.99%
- viability, T/C (second compound 3.16 µM, first compound 0.01 µM): 2.04%
- viability, T/C [23]: 2.02%
- viability, T/C [24]: 2.48%
- viability, T/C [25]: 5.26%
- viability, T/C [26]: 2.04%
- viability, T/C (second compound 10 µM, first compound 0.00316 µM): 1.98%
- viability, T/C (second compound 10 µM, first compound 0.01 µM): 1.03%
- viability, T/C [27]: 0.86%
- viability, T/C [28]: 2.28%
- viability, T/C [29]: 0.94%
- viability, T/C [30]: 0.92%
